Reference: ChEMBL document CHEMBL5036330, “Discovery of 8,9-seco-ent-Kaurane Diterpenoids as Potential Leads for the Treatment of Triple-Negative Breast Cancer” (J Med Chem, 2021)
Active and inactive are the calls of the source. No cut-off for these calls is given here.

Legend:
[1] = tested on: MDA-MB-231; experiment: Induction of cell cycle arrest in human MDA-MB-231 cells assessed as accumulation of cells at S phase at 2 uM measured after 24 hrs by flow cytometry (reference value: 32.2%); format: functional
[2] = tested on: MDA-MB-231; experiment: Antitumor activity against human MDA-MB-231 cells xenografted in NOD/SCID mouse assessed as increase in TUNEL expression in tumor tissue at 5 to 10 mg/kg, ip treated for 33 days by immunohistochemical analysis; format: functional, organism-based; settings: dose 5-10 mg/kg, time 33.0 day
[3] = tested on: MDA-MB-468; experiment: Induction of autophagy in human MDA-MB-468 cells assessed as increase in ATG7 expression at 1 to 5 uM incubated for 24 hrs by Western blot analysis; format: functional, cell-based; settings: dose 1-5 µM
[4] = tested on: MDA-MB-468; experiment: Effect on PI3K expression in human MDA-MB-468 cells measured at 1 to 5 uM after 24 hrs by Western blot analysis; format: functional, cell-based; settings: dose 1-5 µM
[5] = Selectivity index, ratio of IC50 for human MCF-10A cells to IC50 for human MBA-MB-231 cells; format: functional
[6] = tested on: MDA-MB-468; experiment: Induction of cell cycle arrest in human MDA-MB-468 cells assessed as accumulation of cells at S phase at 1 uM measured after 24 hrs by flow cytometry (reference value: 46.9%); format: functional
[7] = tested on: MDA-MB-468; experiment: Antiproliferative activity against human MDA-MB-468 cells assessed as supression of long term proliferative capacity measured for 2 weeks by Colony formation assay; format: functional, cell-based; settings: dose 0.05-0.2 µM
[8] = tested on: MDA-MB-468; experiment: Induction of cell cycle arrest in human MDA-MB-468 cells assessed as accumulation of cells at G1 phase at 1 uM measured after 24 hrs by flow cytometry (reference value: 26.6%); format: functional
[9] = species: Homo sapiens; experiment: Inhibition of PI3K (unknown origin) by ADP-Glo assay
[10] = tested on: MDA-MB-231; experiment: Induction of apoptosis in human MDA-MB-231 cells assessed as late apoptotic cells at 1 uM measured after 24 hrs by Annexin V/Propidium iodide stain based Flow cytometry (reference value: 2.78%); format: functional
[11] = tested on: MDA-MB-231; experiment: Antiinvasive activity against in human MDA-MB-231 cells assessed as reduction in beta-catenin expression measured upto 72 hrs by Western blot analysis; format: functional, cell-based; settings: dose 0.1-0.2 µM, time hrs <=72
[12] = tested on: MCF-10A; experiment: Cytotoxicity against human MCF-10A cells assessed as reduction in cell viability incubated for 96 hrs by MTT method; format: cell-based
[13] = tested on: MDA-MB-231; experiment: Antitumor activity against human MDA-MB-231 cells xenografted in NOD/SCID mouse assessed as decrease in CD31 expression in tumor tissue at 5 to 10 mg/kg, ip treated for 33 days by immunohistochemical analysis; format: functional, organism-based; settings: dose 5-10 mg/kg, time 33.0 day
[14] = tested on: MDA-MB-468; experiment: Anticancer activity in human MDA-MB-468 cells xenografted mouse model assessed as tumor growth inhibition at 5 mg/kg, ip treated for 33 days relative to control; format: functional, organism-based; settings: time 33.0 day
[15] = tested on: MDA-MB-468; experiment: Induction of cell cycle arrest in human MDA-MB-468 cells assessed as accumulation of cells at G1 phase at 5 uM measured after 24 hrs by flow cytometry (reference value: 26.6%); format: functional
[16] = tested on: MDA-MB-231; experiment: Induction of cell cycle arrest in human MDA-MB-231 cells assessed as accumulation of cells at G1 phase at 2 uM measured after 24 hrs by flow cytometry (reference value: 47.7%); format: functional
[17] = tested on: MDA-MB-468; experiment: Anticancer activity in human MDA-MB-468 cells xenografted mouse model assessed as reduction in tumor weight at 10 mg/kg, ip treated for 33 days; format: functional; settings: MDA-MB-468, ip, 792 h, time 33 day
[18] = Selectivity index, ratio of IC50 for human LO2 cells to IC50 for human MBA-MB-231 cells; format: functional
[19] = target: Serine/threonine-protein kinase mTOR (Homo sapiens) (UniProt P42345); experiment: Inhibition of mTOR phosphorylation in human MDA-MB-468 cells measured after 24 hrs by Western blot analysis; format: cell-based; settings: dose 1-5 µM
[20] = tested on: MDA-MB-468; experiment: Induction of cell cycle arrest in human MDA-MB-468 cells assessed as accumulation of cells at G2 phase at 5 uM measured after 24 hrs by flow cytometry (reference value: 26.5%); format: functional
[21] = tested on: MDA-MB-468; experiment: Induction of apoptosis in human MDA-MB-468 cells assessed as decrease in Bcl2/Bax ratio at 1 to 5 uM measured after 24 hrs by Western blot analysis; format: functional, cell-based; settings: dose 1-5 µM
[22] = tested on: MDA-MB-231; experiment: Induction of cell cycle arrest in human MDA-MB-231 cells assessed as accumulation of cells at S phase at 5 uM measured after 24 hrs by flow cytometry (reference value: 32.2%); format: functional
[23] = tested on: MDA-MB-468; experiment: Cytotoxicity against human MDA-MB-468 cells assessed as reduction in cell viability incubated for 96 hrs by MTT method; format: functional, cell-based; settings: MDA-MB-468, 96 h
[24] = tested on: MDA-MB-468; experiment: Induction of mitochondrial depolarization in human MDA-MB-468 cells assessed as monomers at 5 uM in dark by JC10 staining based fluorescence microscopy (reference value: 8.4%); format: functional
[25] = tested on: MDA-MB-468; experiment: Induction of mitochondrial depolarization in human MDA-MB-468 cells assessed as monomers at 1 uM in dark by JC10 staining based fluorescence microscopy (reference value: 8.4%); format: functional
[26] = tested on: MDA-MB-468; experiment: Induction of apoptosis in human MDA-MB-468 cells assessed as increase in cleaved caspase 3 at 1 to 5 uM measured after 24 hrs by Western blot analysis; format: functional, cell-based; settings: dose 1-5 µM
[27] = tested on: MDA-MB-231; experiment: Induction of cell cycle arrest in human MDA-MB-231 cells assessed as accumulation of cells at G2 phase at 1 uM measured after 24 hrs by flow cytometry (reference value: 20.2%); format: functional
[28] = Toxicity in NOD/SCID mouse assessed as cytotoxicity in lung at 10 mg/kg, ip treated for 33 days by H&E staining analysis; format: organism-based; settings: in vivo, 792 h, time 33 day
[29] = tested on: MDA-MB-231; experiment: Induction of autophagy in human MDA-MB-231 cells assessed as increase in ATG7 expression at 1 to 5 uM incubated for 24 hrs by Western blot analysis; format: functional, cell-based; settings: dose 1-5 µM
[30] = tested on: MDA-MB-468; experiment: Induction of autophagy in human MDA-MB-468 cells assessed as increase in LC3-II expression at 1 to 5 uM incubated for 24 hrs by Western blot analysis; format: functional, cell-based; settings: dose 1-5 µM
[31] = tested on: MDA-MB-468; experiment: Induction of mitochondrial depolarization in human MDA-MB-468 cells assessed as aggregates at 1 uM in dark by JC10 staining based fluorescence microscopy (reference value: 91.6%); format: functional
[32] = tested on: MDA-MB-468; experiment: Induction of apoptosis in human MDA-MB-468 cells assessed as increase in cleaved PARP at 1 to 5 uM measured after 24 hrs by Western blot analysis; format: functional, cell-based; settings: dose 1-5 µM
[33] = target: Serine/threonine-protein kinase mTOR (Homo sapiens) (UniProt P42345); experiment: Inhibition of mTOR phosphorylation in human MDA-MB-231 cells measured after 24 hrs by Western blot analysis; format: cell-based; settings: dose 1-5 µM
[34] = tested on: MDA-MB-231; experiment: Induction of apoptosis in human MDA-MB-231 cells assessed as early apoptotic cells at 1 uM measured after 24 hrs by Annexin V/Propidium iodide stain based Flow cytometry (reference value: 3.34%); format: functional
[35] = tested on: MDA-MB-468; experiment: Induction of mitochondrial depolarization in human MDA-MB-468 cells assessed as aggregates at 5 uM in dark by JC10 staining based fluorescence microscopy (reference value: 91.6%); format: functional
[36] = tested on: MDA-MB-468; experiment: Anticancer activity in human MDA-MB-468 cells xenografted mouse model assessed as tumor growth inhibition at 10 mg/kg, ip treated for 33 days relative to control; format: functional, organism-based; settings: time 33.0 day

SMILES: C=C1C(=O)C2=C[C@H]1CCC(=O)[C@]1(C)[C@H](O)CCC(C)(C)[C@H]1C[C@H]2O
- Activity [1]: 34.5%
- Activity [2]: Active
- Activity [3]: Active
- Activity [4]: inactive
- Selectivity Index [5]: 14
- Activity [6]: 27.9%
- Activity [7]: Active
- Activity [8]: 14.3%
- inhibition [9]: inactive
- Activity [10]: 11.2%
- Activity [11]: Active
- IC50 [12]: 1050 nM
- Activity [13]: Active
- Activity [14]: Active
- Activity [15]: 16.1%
- Activity [16]: 33.8%
- inhibition in vivo at 10 mg/kg [17]: 58%
- Selectivity Index [18]: >66.7
- inhibition [19]: Active
- Activity [20]: 59.6%
- Activity [21]: Active
- Activity [22]: 35.1%
- IC50 [23]: 71.6 nM
- Activity [24]: 86.6%
- Activity [25]: 38.4%
- Activity [26]: Active
- Activity [27]: 29.2%
- Activity [28]: Non-Toxic
- Activity [29]: Active
- Activity [30]: Active
- Activity [31]: 61.6%
- Activity [32]: Active
- inhibition [33]: Active
- Activity [34]: 6.59%
- Activity [35]: 13.3%
- Activity [36]: Active
